Reference: publication PMC7998731, “Pharmacokinetic Characterization of Supinoxin and Its Physiologically Based Pharmacokinetic Modeling in Rats” (Pharmaceutics, 2021)

How the values were obtained:
[1] = target: T1, CYP2D6 (Homo sapiens, UniProt P10635); test: CYP inhibition, Vivid CYP450 screening kit; type: in vitro ADME
T1 construct: purchased Thermo Fisher Scientific
Experimental: (§1) CYP inhibition by supinoxin was studied using Vivid® CYP450 screening kits (Thermo Fisher Scientific, San Jose, CA, USA) following the manufacturer’s instructions. Briefly, Vivid® substrates were dissolved in acetonitrile yielding a stock solution of 2 mM. Fluorescent assays were conducted at room temperature using Costar 96-well black plates (#3915; Corning Costar, Acton, MA, USA). Supinoxin stock solution was diluted in reaction buffer to yield a 2.5X concentration solution (final concentration of 10 µM); aliquots (40 μL) of the solution were added to the wells. Subsequently, aliquots (50 μL) of reaction mixture consisting of P450 Baculosomes® Reagent and the NADPH regeneration system were also added to the wells and preincubated for 10 min, at room temperature, after which 10 μL of 1 mM NADP^+ and Vivid® substrate mixture were added. After a 30-min incubation, fluorescence was detected in end-point mode using a Varioscan™ Flash multimode reader (Thermo Fisher Scientific, San Jose, CA, USA). Background fluorescence was obtained from wells not containing CYP isozymes and was withdrawn before further reaction. The excitation and emission wavelengths of 485 nm/530 nm for Vivid® Green substrates, and 409 nm/460 nm for Vivid® Blue substrates were used. The inhibition percentage of the compound was determined in comparison to the vehicle (i.e., DMSO)-treated control wells. For isozymes with > 50% inhibition at 10 μM, we determined the concentration-dependent inhibition of supinoxin to obtain the IC50 value at concentrations ranging from 0.59 to 10 μM.

[2] = target: T2, CYP2C9 (Homo sapiens, UniProt P11712); test: CYP inhibition, Vivid CYP450 screening kit; type: in vitro ADME
T2 construct: purchased Thermo Fisher Scientific
T2 sequence (P11712 whole entry): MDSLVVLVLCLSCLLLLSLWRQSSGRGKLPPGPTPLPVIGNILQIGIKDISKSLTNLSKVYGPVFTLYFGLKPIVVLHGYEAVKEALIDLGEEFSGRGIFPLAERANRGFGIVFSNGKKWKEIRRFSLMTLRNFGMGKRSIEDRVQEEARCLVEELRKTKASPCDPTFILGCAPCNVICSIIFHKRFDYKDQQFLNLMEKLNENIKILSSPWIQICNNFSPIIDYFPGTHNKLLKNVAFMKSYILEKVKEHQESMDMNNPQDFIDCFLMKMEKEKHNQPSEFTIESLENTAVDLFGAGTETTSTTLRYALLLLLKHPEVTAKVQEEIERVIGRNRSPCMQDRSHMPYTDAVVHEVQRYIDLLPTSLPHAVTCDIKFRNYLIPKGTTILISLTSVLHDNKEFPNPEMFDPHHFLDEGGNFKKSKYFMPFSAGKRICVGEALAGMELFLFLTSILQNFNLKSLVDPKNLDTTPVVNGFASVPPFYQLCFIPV
Experimental: as §1

[3] = target: T3, CYP1A2 (Homo sapiens, UniProt P05177); test: CYP inhibition, Vivid CYP450 screening kit; type: in vitro ADME
T3 construct: purchased Thermo Fisher Scientific
T3 sequence (P05177 1-516): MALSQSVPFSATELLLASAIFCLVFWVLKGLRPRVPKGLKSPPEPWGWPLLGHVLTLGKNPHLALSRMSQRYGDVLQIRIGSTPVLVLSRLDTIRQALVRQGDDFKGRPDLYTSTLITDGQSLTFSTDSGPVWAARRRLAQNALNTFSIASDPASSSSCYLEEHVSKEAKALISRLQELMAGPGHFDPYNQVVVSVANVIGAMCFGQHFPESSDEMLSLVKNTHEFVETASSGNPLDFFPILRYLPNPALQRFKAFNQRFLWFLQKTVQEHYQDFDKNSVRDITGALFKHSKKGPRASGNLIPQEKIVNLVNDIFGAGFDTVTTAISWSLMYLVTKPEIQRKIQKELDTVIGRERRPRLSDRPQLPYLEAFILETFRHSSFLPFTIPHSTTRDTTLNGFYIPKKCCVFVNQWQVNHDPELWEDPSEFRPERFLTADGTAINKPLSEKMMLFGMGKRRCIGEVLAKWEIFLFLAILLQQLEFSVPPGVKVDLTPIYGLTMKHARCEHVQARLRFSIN
Experimental: as §1

[4] = target: T4, CYP2C19 (Homo sapiens, UniProt P33261); test: CYP inhibition, Vivid CYP450 screening kit; type: in vitro ADME
T4 construct: purchased Thermo Fisher Scientific
T4 sequence (P33261 whole entry): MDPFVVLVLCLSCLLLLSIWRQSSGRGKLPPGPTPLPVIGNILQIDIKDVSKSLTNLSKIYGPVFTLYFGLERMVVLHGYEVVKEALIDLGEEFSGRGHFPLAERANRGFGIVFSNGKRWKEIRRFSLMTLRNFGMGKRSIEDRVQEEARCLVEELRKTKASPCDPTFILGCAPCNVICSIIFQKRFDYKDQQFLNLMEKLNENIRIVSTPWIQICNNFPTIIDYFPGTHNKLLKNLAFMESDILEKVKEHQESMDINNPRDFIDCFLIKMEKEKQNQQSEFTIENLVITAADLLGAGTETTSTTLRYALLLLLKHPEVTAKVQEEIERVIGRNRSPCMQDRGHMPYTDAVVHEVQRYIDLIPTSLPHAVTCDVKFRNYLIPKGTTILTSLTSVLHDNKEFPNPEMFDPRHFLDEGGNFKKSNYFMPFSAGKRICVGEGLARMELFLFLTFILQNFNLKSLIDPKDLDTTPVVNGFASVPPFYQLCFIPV
Experimental: as §1

[5] = target: T5, CYP3A4 (Homo sapiens, UniProt P08684); test: CYP inhibition, Vivid CYP450 screening kit; type: in vitro ADME
T5 construct: purchased Thermo Fisher Scientific
T5 sequence (P08684 whole entry): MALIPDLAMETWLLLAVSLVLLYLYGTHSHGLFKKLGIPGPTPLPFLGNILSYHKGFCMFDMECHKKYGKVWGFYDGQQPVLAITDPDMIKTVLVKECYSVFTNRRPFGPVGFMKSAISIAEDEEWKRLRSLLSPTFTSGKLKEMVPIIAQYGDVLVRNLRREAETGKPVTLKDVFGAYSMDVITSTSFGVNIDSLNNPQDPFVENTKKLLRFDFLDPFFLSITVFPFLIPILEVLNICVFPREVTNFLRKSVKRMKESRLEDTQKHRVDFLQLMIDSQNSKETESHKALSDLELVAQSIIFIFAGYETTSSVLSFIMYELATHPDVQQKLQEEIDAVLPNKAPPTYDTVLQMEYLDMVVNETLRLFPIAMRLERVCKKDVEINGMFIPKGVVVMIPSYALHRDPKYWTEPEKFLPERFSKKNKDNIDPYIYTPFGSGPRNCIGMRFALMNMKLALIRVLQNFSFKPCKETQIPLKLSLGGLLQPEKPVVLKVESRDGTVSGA
Experimental: as §1

[6] = system: advanced triple-negative breast cancer; set-up: method as in doi:10.1200/JCO.2018.36.15_suppl.1097; conditions: cited from earlier work

T1 sequence (P10635 whole entry): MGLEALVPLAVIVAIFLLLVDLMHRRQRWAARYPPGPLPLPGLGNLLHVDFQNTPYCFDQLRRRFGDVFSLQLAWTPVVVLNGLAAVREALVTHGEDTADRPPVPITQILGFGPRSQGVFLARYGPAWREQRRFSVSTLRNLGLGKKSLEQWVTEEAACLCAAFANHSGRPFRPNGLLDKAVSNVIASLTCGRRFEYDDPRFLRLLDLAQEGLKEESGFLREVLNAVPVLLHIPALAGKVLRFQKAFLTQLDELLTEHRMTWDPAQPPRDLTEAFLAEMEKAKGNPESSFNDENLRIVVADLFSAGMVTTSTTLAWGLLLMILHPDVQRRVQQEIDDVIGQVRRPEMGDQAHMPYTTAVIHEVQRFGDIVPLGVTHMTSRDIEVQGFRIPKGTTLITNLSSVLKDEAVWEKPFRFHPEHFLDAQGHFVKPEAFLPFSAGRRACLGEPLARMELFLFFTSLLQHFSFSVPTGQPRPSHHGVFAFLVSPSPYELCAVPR

IC50 ([1]; human recombinant CYP2D6): > 10 µM
inhibition at 30 min, 10 µM ([1]; recombinant human CYP2D6 (P450 Baculosomes), probe Vivid substrate, human recombinant CYP2D6, 10 µM, read-out: inhibition compared to the vehicle control): < 0.01%
IC50 ([2]; human recombinant CYP2C9): > 10 µM
inhibition at 30 min, 10 µM ([2]; recombinant human CYP2C9 (P450 Baculosomes), probe Vivid substrate, human recombinant CYP2C9, 10 µM, read-out: inhibition compared to the vehicle control): 16.2%
IC50 ([3]; human recombinant CYP1A2): > 10 µM
inhibition at 30 min, 10 µM ([3]; recombinant human CYP1A2 (P450 Baculosomes), probe Vivid substrate, human recombinant CYP1A2, 10 µM, read-out: inhibition compared to the vehicle control): 5.9%
IC50 ([4]; human recombinant CYP2C19): > 10 µM
inhibition at 30 min, 10 µM ([4]; recombinant human CYP2C19 (P450 Baculosomes), probe Vivid substrate, human recombinant CYP2C19, 10 µM, read-out: inhibition compared to the vehicle control): 35.7%
IC50 ([5]; human recombinant CYP3A4, 0.59 to 10 μM): 4.66 µM
inhibition at 30 min, 10 µM ([5]; recombinant human CYP3A4 (P450 Baculosomes), probe Vivid substrate, human recombinant CYP3A4, 10 µM): > 50%
Compound: COc1cc(OC)cc(N2CCN(C(=O)Nc3nc4cc(F)ccc4nc3OC)CC2)c1 [supinoxin, 1-(3,5-Dimethoxyphenyl)-4-[(6-Fluoro-2-Methoxyquinoxalin-3-yl) Aminocarbonyl] Piperazine]
patients with stable disease ([6]; after two cycles of therapy): five of the 11 patients
safety and tolerability of the suggested dose [6]: safe and well tolerated
tumor reduction ([6]; one subject, after two cycles of therapy): 18.2%
